The values that follow come from patent publication US10857153B2, “Pyrimidine compounds containing acidic groups” (Apros Therapeutics, Inc., priority 2018, dated 2020).

The nature of data set [1]: Formulation preparation and solubility examination. In kind it is physicochemical. Particulars: 1 mg/mL in 0.5% carboxy methycellulose in water, pH 6-7. The procedure: The resulting formulations were vortexed and stored at 4° C. before dosing.
The subject of data set [2] is TLR7. The data set can be described thus: Pharmacodynamic experiment: serum IP-10 after intranasal dosing. The following applies: BALB/c mice, 60 micrograms intranasally, 5 hours. It is filed as in vivo. The procedure:
IP-10 is a biomarker of TLR7 target activation. Higher production levels of IP-10 is an indication of higher target engagement in vivo. In this study, 3 BALB/c mice per group were dosed intranasally with 60 micrograms of Compound 1B, 2B, 3B, Compound 50 or AZD8848. The test compounds were formulated as a 1 mg/mL solution in 0.5% carboxy methycellulose. Animals were sacrificed after 5 hours. Serum IP-10 concentrations were measured using a commercial ELISA kit purchased from Meso Scale Discovery.

The subject of data set [3] is CT26 cells stably expressing luciferase. The data set can be described thus: CT26 metastatic lung cancer model. The following applies: for median survival time: intranasal, in combination with anti-PD-L1, twice a week, 8 doses; for mean bioluminescence (tumor burden) versus anti-PD-L1 or anti-PD-L1 with Compound 50 or AZD8848: in combination with anti-PD-L1, for more than 20 days after injection of tumor cells.
Method: To establish a lung cancer model, 5e5 CT26 cells stably expressing luciferase (Imanis Life Sciences) were injected intravenously into female Balb/c mice on Day 0. On Day 4 post challenge, mice were anesthetized and subjected to whole body bioluminescent imaging (IVIS; Perkin Elmer) to determine tumor burden and in vivo location. Mice with detectable lung tumors were enrolled into the study and randomized such that the average bioluminescence and variance is equivalent amongst all of the study groups. Animals were dosed twice a week for a total of 8 doses with the indicated treatments, and imaged weekly to determine total tumor burden over the course of the treatment.
The known TLR7 compound AZD8848 was used as a comparator and administered in combination with anti-PD-L1 to the mice. […] Each treatment group contained 10 mice.

The target in data set [4] is T1, human TLR7 (Homo sapiens, UniProt Q9NYK1).
T1 construct: host or cells: HEK293 (HEK-Blue™ hTLR7)
T1 sequence (Q9NYK1 27-1049): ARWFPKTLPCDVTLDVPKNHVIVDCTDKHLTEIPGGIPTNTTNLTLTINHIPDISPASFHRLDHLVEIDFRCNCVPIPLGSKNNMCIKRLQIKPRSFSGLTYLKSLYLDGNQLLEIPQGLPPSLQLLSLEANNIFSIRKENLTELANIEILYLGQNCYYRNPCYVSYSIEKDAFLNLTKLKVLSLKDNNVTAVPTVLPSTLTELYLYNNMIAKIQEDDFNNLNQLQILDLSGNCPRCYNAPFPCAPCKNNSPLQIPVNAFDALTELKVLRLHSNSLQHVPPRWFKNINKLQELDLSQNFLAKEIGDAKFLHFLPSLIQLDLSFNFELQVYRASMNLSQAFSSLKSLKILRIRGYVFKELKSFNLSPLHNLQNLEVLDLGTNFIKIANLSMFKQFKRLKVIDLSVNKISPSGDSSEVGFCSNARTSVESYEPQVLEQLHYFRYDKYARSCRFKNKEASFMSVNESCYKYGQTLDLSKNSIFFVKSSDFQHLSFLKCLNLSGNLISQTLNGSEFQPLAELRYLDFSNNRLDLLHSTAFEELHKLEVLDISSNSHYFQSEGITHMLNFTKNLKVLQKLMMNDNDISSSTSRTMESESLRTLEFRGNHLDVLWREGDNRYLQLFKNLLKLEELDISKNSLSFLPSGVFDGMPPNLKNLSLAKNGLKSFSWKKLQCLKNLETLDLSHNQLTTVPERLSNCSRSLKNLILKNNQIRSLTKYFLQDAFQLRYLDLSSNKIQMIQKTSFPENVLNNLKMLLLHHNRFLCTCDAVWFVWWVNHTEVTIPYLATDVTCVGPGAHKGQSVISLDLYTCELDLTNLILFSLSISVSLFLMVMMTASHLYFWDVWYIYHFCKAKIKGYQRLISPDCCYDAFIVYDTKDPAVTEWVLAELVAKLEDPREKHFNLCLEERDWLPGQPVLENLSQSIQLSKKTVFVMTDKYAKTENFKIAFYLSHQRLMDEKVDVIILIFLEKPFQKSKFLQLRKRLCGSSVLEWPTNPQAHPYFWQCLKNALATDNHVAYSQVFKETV
The data set can be described thus: HEK-TLR7 assay (HEK-Blue hTLR7 cells, SEAP reporter). The following applies: 16 h. In kind it is cell-based. The text has this:
HEK-Blue™ TLR7 cells were purchased from Invivogen (San Diego, Calif.). The following description was taken from the product information sheet.
“HEK-Blue™ hTLR7 cells are designed for studying the stimulation of human TLR7 (hTLR7) by monitoring the activation of NF-kB. HEK-Blue™ hTLR7 cells were obtained by co-transfection of the hTLR7 gene and an optimized secreted embryonic alkaline phosphatase (SEAP) reporter gene into HEK293 cells. The SEAP reporter gene is placed under the control of the IFN-b minimal promoter fused to five NF-kB and AP-1-binding sites. Stimulation with a TLR7 ligand activates NF-kB and AP-1 which induce the production of SEAP, which is detected by the HEK-Blue™ Detection cell culture medium.”
A typical assay protocol involved the following steps: • 1. Cells were cultured according to the product information sheet. • 2. 10 mM compound stock in DMSO were first diluted to 3 mM and then 3-fold serially diluted using DMSO to afford a 10-pt dilution. • 3. 3 μl of the diluted DMSO were added to 57 μl HEK-Blue™ Detection media for a further 20-fold dilution. • 4. 10 μl of the diluted compound in assay media were added into 40 μl cell culture (in HEK-Blue™ Detection media) in 384-well plate. Final cell concentration=8,000 cells per well. • 5. The plates were incubated at 37° C. in 5% CO2 for 16 h. SEAP was determined using a spectrophotometer at 620-655 nm.

By EC50 is commonly meant the concentration that produces a half-maximal response.

Regarding `CCCC[C@@H](CCS(C)(=O)=O)Nc1nc(N)nc(CCC(=O)O)c1Cc1cc(CC(=O)O)ccc1OC` [Compound 50, reference compound], the “appearance of formulation (solubility)” value in data set [1] is on record as “clear”. Further, the “mean serum IP-10 concentration” value in data set [2] is 125 pg/mL. The median survival time in data set [3] is given as 29 days. This compound also returned an EC50 in data set [4] of 260 nM.
For the compound `CCCC[C@@H](CCS(C)(=O)=O)Nc1nc(N)nc(CCC(=O)O)c1Cc1cc(Cc2nn[nH]n2)ccc1OC` [Compound 1B, (S)-3-(5-(5-((2H-tetrazol-5-yl)methyl)-2-methoxybenzyl)-2-amino-6-((1-(methyl-sulfonyl)heptan-3-yl)amino)pyrimidin-4-yl)propanoic acid], in data set [2], the “mean serum IP-10 concentration” value was “about 700 pg/mL”. In data set [3], the “mean bioluminescence (tumor burden) versus anti-PD-L1 or anti-PD-L1 with Compound 50 or AZD8848” value is “lower” and the median survival time turned out to be 36 days. For the same compound, the EC50 in data set [4] is 230 nM.
For `CCCC[C@@H](CCO)Nc1nc(N)nc(CCC(=O)O)c1Cc1cc(Cc2nn[nH]n2)ccc1OC` [Compound 3B, (S)-3-(5-(5-((2H-tetrazol-5-yl)methyl)-2-methoxybenzyl)-2-amino-6-((1-hydroxyheptan-3-yl)amino)pyrimidin-4-yl)propanoic acid], in that order: around 1300 pg/mL, “lower”, 36 days and 270 nM.
Take `CCCC[C@@H](CCO)Nc1nc(N)nc(CCC(=O)O)c1Cc1cc(CC(=O)O)ccc1OC` [Compound 2B, (S)-3-(2-amino-5-(5-(carboxymethyl)-2-methoxybenzyl) -6-((1-hydroxyheptan-3-yl)amino)pyrimidin-4-yl)propanoic acid]: in data set [2], the “mean serum IP-10 concentration” value was around 150 pg/mL. Moreover, in data set [3], the “mean bioluminescence (tumor burden) versus anti-PD-L1 or anti-PD-L1 with Compound 50 or AZD8848” value is “lower” and the median survival time turned out to be 32 days. This compound also had an EC50 in data set [4] of 270 nM.
For `CCCCOc1nc(N)c2[nH]c(=O)n(CCCN(CCCN3CCOCC3)Cc3cccc(CC(=O)OC)c3)c2n1` [AZD8848, reference compound], the “appearance of formulation (solubility)” value in data set [1] is listed as “turbid suspension”. In addition, the “mean serum IP-10 concentration” value in data set [2] was 96 pg/mL. Besides, the median survival time in data set [3] was 23 days. The EC50 in data set [4] came to 37 nM.
